For 12 molecules, Ki results are on record in patent publication US12441762B2, “Hepatitis c virus NS3/4A protease inhibitors” (priority 2019, dated 2025).

What all share (experiment): biochemical
One experiment deals with HCV NS3/4A protease GT3 (Hepatitis C virus genotype 3a, UniProt Q81495).
Experiment [1] concerns the target T1, wild-type HCV NS3/4A protease (GT1a) (Hepatitis C virus genotype 1a, UniProt P27958, C1185S).
T1 construct: His-tag (cleaved yes); made in house; host or cells: Escherichia coli BL21(DE3), PET28a vector
The class given is biochemical. Summed up:
(§1)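 Inhibitors pre-incubated 1 h at room temperature with 2 nM NS3/4A protease (GT1a C159S or D168A) in 50 mM Tris, 5% glycerol, 10 mM DTT, 0.6 mM LDAO, 4% DMSO, pH 7.5. Km from global Michaelis-Menten fit of inner-filter-corrected initial velocities; three independent data sets per inhibitor and construct.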

In experiment [2] the target is T2, HCV NS3/4A protease D168A variant (Hepatitis C virus genotype 1a, UniProt P27958, C1185S/D1194A).
T2 construct: His-tag (cleaved yes); made in house; host or cells: Escherichia coli BL21(DE3), PET28a vector
T2 sequence (P27958 1027-1208 C1185S/D1194A): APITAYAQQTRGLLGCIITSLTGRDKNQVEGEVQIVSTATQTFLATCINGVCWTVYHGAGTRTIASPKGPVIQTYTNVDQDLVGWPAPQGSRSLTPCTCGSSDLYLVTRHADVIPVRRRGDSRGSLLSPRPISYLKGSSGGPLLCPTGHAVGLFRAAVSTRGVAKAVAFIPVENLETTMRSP
The class given is biochemical. The method in brief:
as §1

T1 sequence (P27958 1027-1208 C1185S): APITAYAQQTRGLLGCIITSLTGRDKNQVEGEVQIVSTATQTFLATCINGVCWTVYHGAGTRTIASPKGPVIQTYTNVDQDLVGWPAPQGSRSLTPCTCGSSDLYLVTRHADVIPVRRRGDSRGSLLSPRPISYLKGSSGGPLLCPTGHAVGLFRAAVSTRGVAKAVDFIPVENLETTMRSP
Sequence of HCV NS3/4A protease GT3 (Q81495 1033-1214): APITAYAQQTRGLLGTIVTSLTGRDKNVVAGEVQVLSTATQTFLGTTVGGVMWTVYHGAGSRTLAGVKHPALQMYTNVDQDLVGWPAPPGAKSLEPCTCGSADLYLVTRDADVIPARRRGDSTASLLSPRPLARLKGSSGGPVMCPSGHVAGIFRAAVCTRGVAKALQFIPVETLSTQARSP
Sequence of HCV NS3/4A protease GT3 (Q81495 1664-1717): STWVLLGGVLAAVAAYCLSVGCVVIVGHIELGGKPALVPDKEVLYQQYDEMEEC

A word on the Ki: it is a dissociation constant, usually derived from enzyme kinetics or from competition with a known ligand. Low readings indicate tighter binding, high ones weaker binding. For the molecule `COc1ccc2nc(C)c(O[C@@H]3C[C@H]4C(=O)N[C@]5(C(=O)NS(=O)(=O)C6(C)CC6)C[C@H]5/C=C\CCCCC[C@H](NC(=O)O[C@@H]5CCC[C@H]5F)C(=O)N4C3)nc2c1` [NR02-08, (1R,2R)-2-Fluorocyclopentyl ((2R,6S,13aS,14aR,16aS,Z)-2-((7-methoxy-3-methylquinoxalin-2-yl)oxy)-14a-(((1-methylcyclopropyl)sulfonyl)carbamoyl)-5,16-dioxo-1,2,3,5,6,7,8,9,10,11,13a,14,14a,15,16,16a-hexadecahydrocyclopropa[e]pyrrolo [1,2-a][1,4]diazacyclopentadecin-6-yl)carbamate], the Ki at HCV NS3/4A protease GT3 turned out to be 216 ± 32 nM; in experiment [1], 2.3 ± 0.2 nM; in experiment [2] it was 16 ± 1 nM.
The like results for `COc1ccc2nc(C(F)(F)F)c(O[C@@H]3C[C@H]4C(=O)N[C@]5(C(=O)NS(=O)(=O)C6(C)CC6)C[C@H]5/C=C\CCCCC[C@H](NC(=O)OC5(C)CCCC5)C(=O)N4C3)nc2c1` [NR02-15, 1-Methylcyclopentyl ((2R,6S,13aS,14aR,16aS,Z)-2-((7-methoxy-3-(trifluoromethyl)quinoxalin-2-yl)oxy)-14a-(((1-methylcyclopropyl)sulfonyl)carbamoyl)-5,16-dioxo-1,2,3,5,6,7,8,9,10,11,13a,14,14a,15,16,16a-hexadecahydrocyclopropa[e]pyrrolo[1,2-a][1,4]diazacyclopentadecin-6-yl)carbamate] were, in that order, 161 ± 13 nM, 0.9 ± 0.1 nM and 11.8 ± 1.8 nM.
Taken in the same sequence, the figures for `COc1ccc2nc(C(F)(F)F)c(O[C@@H]3C[C@H]4C(=O)N[C@]5(C(=O)NS(=O)(=O)C6(C)CC6)C[C@H]5/C=C\CCCCC[C@H](NC(=O)O[C@@H](C)C(F)(F)F)C(=O)N4C3)nc2c1` [NR02-32, (S)-1,1,1-Trifluoropropan-2-yl ((2R,6S,13aS,14aR,16aS,Z)-2-((7-methoxy-3-(trifluoromethyl)quinoxalin-2-yl)oxy)-14a-(((1-methylcyclopropyl)sulfonyl)carbamoyl)-5,16-dioxo-1,2,3,5,6,7,8,9,10,11,13a,14,14a,15,16,16a-hexadecahydrocyclopropa[e]pyrrolo[1,2-a][1,4]diazacyclopentadecin-6-yl)carbamate] were 580 ± 50 nM, 7.69 ± 0.89 nM and 44.6 ± 7.3 nM.
Turning to `COc1ccc2nc(C(F)(F)F)c(O[C@@H]3C[C@H]4C(=O)N[C@]5(C(=O)NS(=O)(=O)C6(C)CC6)C[C@H]5/C=C\CCCCC[C@H](NC(=O)O[C@@H](C)C5CC5)C(=O)N4C3)nc2c1` [NR02-33, (S)-1-Cyclopropylethyl ((2R,6S,13aS,14aR,16aS,Z)-2-((7-methoxy-3-(trifluoromethyl)quinoxalin-2-yl)oxy)-14a-(((1-methylcyclopropyl)sulfonyl)carbamoyl)-5,16-dioxo-1,2,3,5,6,7,8,9,10,11,13a,14,14a,15,16,16a-hexadecahydrocyclopropa[e]pyrrolo[1,2-a][1,4]diazacyclopentadecin-6-yl)carbamate], the Ki stood at 412 ± 21 nM at HCV NS3/4A protease GT3, 10.4 ± 0.94 nM in experiment [1] and 54.4 ± 3.7 nM in experiment [2].
Consider `COc1ccc2nc(C(F)(F)F)c(O[C@@H]3C[C@H]4C(=O)N[C@]5(C(=O)NS(=O)(=O)C6(C)CC6)C[C@H]5/C=C\CCCCC[C@H](NC(=O)OC5CC5)C(=O)N4C3)nc2c1` [NR02-46, Cyclopropyl ((2R,6S,13aS,14aR,16aS,Z)-2-((7-methoxy-3-(trifluoromethyl)quinoxalin-2-yl)oxy)-14a-(((1-methylcyclopropyl)sulfonyl)carbamoyl)-5,16-dioxo-1,2,3,5,6,7,8,9,10,11,13a,14,14a,15,16,16a-hexadecahydrocyclopropa[e]pyrrolo[1,2-a][1,4]diazacyclopentadecin-6-yl)carbamate], for which the Ki stood at 522 ± 25 nM on HCV NS3/4A protease GT3, 13.6 ± 0.9 nM in experiment [1] and 67.5 ± 3.9 nM in experiment [2].
Taken in the same sequence, the figures for `COc1ccc2nc(C)c(O[C@@H]3C[C@H]4C(=O)N[C@]5(C(=O)NS(=O)(=O)C6(C)CC6)C[C@H]5/C=C\CCCCC[C@H](NC(=O)OCC5(C)CC5(F)F)C(=O)N4C3)nc2c1` (stereo partly drawn) [NR02-55, (2,2-Difluoro-1-methylcyclopropyl)methyl ((2R,6S,13aS,14aR,16aS,Z)-2-((7-methoxy-3-methylquinoxalin-2-yl)oxy)-14a-(((1-methylcyclopropyl)sulfonyl)carbamoyl)-5,16-dioxo-1,2,3,5,6,7,8,9,10,11,13a,14,14a,15,16,16a-hexadecahydrocyclopropa[e]pyrrolo[1,2-a][1,4]diazacyclopentadecin-6-yl)carbamate] were 100 ± 12 nM, 3.1 ± 0.3 nM and 4.7 ± 0.5 nM.
Take `COc1ccc2nc(C(F)(F)F)c(O[C@@H]3C[C@H]4C(=O)N[C@]5(C(=O)NS(=O)(=O)C6(C)CC6)C[C@H]5/C=C\CCCCC[C@H](NC(=O)OCC5(C)CC5(F)F)C(=O)N4C3)nc2c1` (stereo partly drawn) [NR02-56, (2,2-Difluoro-1-methylcyclopropyl)methyl ((2R,6S,13aS,14aR,16aS,Z)-2-((7-methoxy-3-(trifluoromethyl)quinoxalin-2-yl)oxy)-14a-(((1-methylcyclopropyl)sulfonyl)carbamoyl)-5,16-dioxo-1,2,3,5,6,7,8,9,10,11,13a,14,14a,15,16,16a-hexadecahydrocyclopropa[e]pyrrolo[1,2-a][1,4]diazacyclopentadecin-6-yl)carbamate]: the results for the inhibition constant Ki (at HCV NS3/4A protease GT3; in experiment [1]; in experiment [2]) were 336 ± 47 nM, 2.1 ± 0.5 nM and 7.1 ± 0.9 nM, respectively.
As for `COc1ccc2nc(C)c(O[C@@H]3C[C@H]4C(=O)N[C@]5(C(=O)NS(=O)(=O)C6(C)CC6)C[C@H]5/C=C\CCCCC[C@H](NC(=O)OC5(C(F)(F)F)CCC5)C(=O)N4C3)nc2c1` [NR02-58, 1-(Trifluoromethyl)cyclobutyl ((2R,6S,13aS,14aR,16aS,Z)-2-((7-methoxy-3-methylquinoxalin-2-yl)oxy)-14a-(((1-methylcyclopropyl)sulfonyl)carbamoyl)-5,16-dioxo-1,2,3,5,6,7,8,9,10,11,13a,14,14a,15,16,16a-hexadecahydrocyclopropa[e]pyrrolo[1,2-a][1,4]diazacyclopentadecin-6-yl)carbamate], the figures for the Ki (on HCV NS3/4A protease GT3; in experiment [1]; in experiment [2]) were 96 ± 17 nM, 1.5 ± 0.2 nM and 11.3 ± 2 nM, respectively.
Taken in the same sequence, the figures for `COc1ccc2nc(C(F)(F)F)c(O[C@@H]3C[C@H]4C(=O)N[C@]5(C(=O)NS(=O)(=O)C6(C)CC6)C[C@H]5/C=C\CCCCC[C@H](NC(=O)OC5(C(F)(F)F)CCC5)C(=O)N4C3)nc2c1` [NR02-59, 1-(Trifluoromethyl)cyclobutyl ((2R,6S,13aS,14aR,16aS,Z)-2-((7-methoxy-3-(trifluoromethyl)quinoxalin-2-yl)oxy)-14a-(((1-methylcyclopropyl)sulfonyl)carbamoyl)-5,16-dioxo-1,2,3,5,6,7,8,9,10,11,13a,14,14a,15,16,16a-hexadecahydrocyclopropa[e]pyrrolo[1,2-a][1,4]diazacyclopentadecin-6-yl)carbamate] were 133 ± 25 nM, 2 ± 0.2 nM and 12.2 ± 1.1 nM.
Regarding `COc1ccc2nc(C)c(O[C@@H]3C[C@H]4C(=O)N[C@]5(C(=O)NS(=O)(=O)C6(C)CC6)C[C@H]5/C=C\CCCCC[C@H](NC(=O)OC5(C(F)(F)F)CCCC5)C(=O)N4C3)nc2c1` [NR02-60, 1-(Trifluoromethyl)cyclopentyl ((2R,6S,13aS,14aR,16aS,Z)-2-((7-methoxy-3-methylquinoxalin-2-yl)oxy)-14a-(((1-methylcyclopropyl)sulfonyl)carbamoyl)-5,16-dioxo-1,2,3,5,6,7,8,9,10,11,13a,14,14a,15,16,16a-hexadecahydrocyclopropa[e]pyrrolo [1,2-a][1,4]diazacyclopentadecin-6-yl)carbamate], the Ki at HCV NS3/4A protease GT3 was 104 ± 7 nM; in experiment [1], 1.3 ± 0.2 nM; in experiment [2], 8.1 ± 1.5 nM.
As for `COc1ccc2nc(C(F)(F)F)c(O[C@@H]3C[C@H]4C(=O)N[C@]5(C(=O)NS(=O)(=O)C6(C)CC6)C[C@H]5/C=C\CCCCC[C@H](NC(=O)OC5(C)CCC5)C(=O)N4C3)nc2c1` [NR02-62, 1-Methylcyclobutyl ((2R,6S,13aS,14aR,16aS,Z)-2-((7-methoxy-3-(trifluoromethyl)quinoxalin-2-yl)oxy)-14a-(((1-methylcyclopropyl)sulfonyl)carbamoyl)-5,16-dioxo-1,2,3,5,6,7,8,9,10,11,13a,14,14a,15,16,16a-hexadecahydrocyclopropa[e]pyrrolo[1,2-a][1,4]diazacyclopentadecin-6-yl)carbamate], the Ki worked out at 283 ± 21 nM at HCV NS3/4A protease GT3, 4.86 ± 0.39 nM in experiment [1] and 20.7 ± 0.7 nM in experiment [2].
Turning to `COc1ccc2nc(C(F)(F)F)c(O[C@@H]3C[C@H]4C(=O)N[C@]5(C(=O)NS(=O)(=O)C6(C)CC6)C[C@H]5/C=C\CCCCC[C@H](NC(=O)OC5(C(F)(F)F)CCCC5)C(=O)N4C3)nc2c1` [NR04-01, 1-(Trifluoromethyl)cyclopentyl ((2R,6S,13aS,14aR,16aS,Z)-2-((7-methoxy-3-(trifluoromethyl)quinoxalin-2-yl)oxy)-14a-(((1-methylcyclopropyl)sulfonyl)carbamoyl)-5,16-dioxo-1,2,3,5,6,7,8,9,10,11,13a,14,14a,15,16,16a-hexadecahydrocyclopropa[e]pyrrolo[1,2-a][1,4]diazacyclopentadecin-6-yl)carbamate], the values for the Ki (at HCV NS3/4A protease GT3; in experiment [1]; in experiment [2]) were 414 ± 23 nM, 5.66 ± 0.5 nM and 20.4 ± 0.9 nM, respectively.
